From US20240360154A1, “AROYL SUBSTITUTED TRICYCLIC COMPOUND, PREPARATION METHOD THEREFOR AND USE THEREOF” (GENFLEET THERAPEUTICS (SHANGHAI) INC., priority 2020, published 2024)

Legend:
BTK = BTK (Homo sapiens (Human), UniProt Q06187); assay: BTK enzyme experiment (ADP-Glo kinase assay); type: biochemical; conditions: 10 nM BTK, ATP 125 μM, Poly(Glu4, Tyr1), 90 minutes at 20° C.; read-out: BTK(WT) IC50
In short: (§1)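 Wild-type or C481S BTK, added as 2× solution at 10 nM, preincubated 10 min with 3-fold compound dilutions in 50 mM HEPES pH 7.5, 10 mM MgCl2, 2 mM DTT, 0.0015% Brij-35. ADP-Glo luminescence norm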

BTK (C481S) = BTK (C481S) (Homo sapiens (Human), UniProt Q06187, C481S); assay: BTK C481S enzyme experiment (ADP-Glo kinase assay); type: biochemical; conditions: 10 nM BTK C481S, ATP 125 μM, Poly(Glu4, Tyr1), 90 minutes at 20° C.
Sequence of BTK (C481S) (Q06187 whole entry C481S): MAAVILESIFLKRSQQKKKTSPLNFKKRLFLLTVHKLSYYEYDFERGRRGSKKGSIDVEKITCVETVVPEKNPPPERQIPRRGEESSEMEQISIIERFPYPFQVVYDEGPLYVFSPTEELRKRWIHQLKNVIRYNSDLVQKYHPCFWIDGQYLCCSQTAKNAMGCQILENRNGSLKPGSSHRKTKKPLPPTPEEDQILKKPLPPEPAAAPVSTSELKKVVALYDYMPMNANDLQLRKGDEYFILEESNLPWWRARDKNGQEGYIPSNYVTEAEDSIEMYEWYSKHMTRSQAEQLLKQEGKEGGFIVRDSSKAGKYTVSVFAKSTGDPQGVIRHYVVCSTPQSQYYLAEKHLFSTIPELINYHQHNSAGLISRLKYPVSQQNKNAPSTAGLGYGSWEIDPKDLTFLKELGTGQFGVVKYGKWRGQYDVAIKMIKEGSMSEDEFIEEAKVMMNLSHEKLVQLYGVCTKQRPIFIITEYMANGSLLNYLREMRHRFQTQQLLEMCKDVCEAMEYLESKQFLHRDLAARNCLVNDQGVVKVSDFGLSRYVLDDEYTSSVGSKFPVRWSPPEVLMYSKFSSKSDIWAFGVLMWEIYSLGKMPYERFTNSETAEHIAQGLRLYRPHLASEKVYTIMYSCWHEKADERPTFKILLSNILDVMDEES
In short: as §1

TMD-8 cells = assay: TMD-8 proliferation inhibition experiment; type: cell-based; conditions: human diffuse large B lymphoma cells, three days incubation
Protocol: TMD-8 cells are human diffuse large B lymphoma (Mingzhou Bio, MZ-0832), cultured in 10% FBS+1% PS 1640 medium; OCI-LY10 is human diffuse large B lymphoma (BeNa Culture Collection, BNCC337742), cultured in 10% FBS+1% PS IMDM. Day 1: Cells at logarithmic growth phase were taken, counted and inoculated 600 TMD-8 or 2000 OCI-LY10 cells in a 384-well cell culture plate and cultured overnight. Day 2: A 3-fold gradient concentration stock solution of 400× compound was prepared with DMSO, and diluted 40-fold to a 10× compound stock solution with culture medium. The 10× compound stock solution was added to each cell culture well with a final concentration of 1× compound stock solution and a DMSO content of 0.25%. DMSO was used as experimental control, and culture medium was used as blank control. The incubation was continued for three days after compound addition. On the fifth day, 25 μL of […] was added to each well, mixed well and incubated for 10 minutes, then the chemiluminescence value (RLU value) was read. The cell proliferation inhibition rate (%)=(RLUcontrol−RLUcompound)/(RLUcontrol−RLUblank)×100% was calculated. The compound gradient dilution concentration and the corresponding cell proliferation inhibition rate were fit by using XLFit four-parameter method, and IC50 value was calculated.

Sequence of BTK (Q06187 whole entry): as the sequence (Q06187 whole entry C481S) above, with S481C counted along it

Row | SMILES | IC50 (BTK) [nM] | IC50 (BTK (C481S)) [nM] | IC50 (TMD-8 cells; Homo sapiens, TMD8, 72 h) [nM] | IC50 (TMD-8 cells) [nM] | IC50 (TMD-8 cells; TMD8, 72 h) [nM]
1 | [2H]C([2H])([2H])OCC1(C)Nc2c(cnc3[nH]cc(C(=O)c4ccc(Oc5ccccc5)cc4Cl)c23)NC1=O (stereo not drawn) [Z66, 9-(2-chloro-4-phenoxybenzoyl)-2-((methoxy-d3)methyl)-2-methyl-1,2,4,7-tetrahydro-3H-pyrrolo[3′,2′:5,6]pyrido[3,4-b]pyrazin-3-one] | 16.4 | 9.3 | 146 | – | –
2 | CCOCC1(C)Nc2c(cnc3[nH]cc(C(=O)c4ccc(Oc5ccccc5)cc4Cl)c23)NC1=O (stereo not drawn) [Z67, 9-(2-chloro-4-phenoxybenzoyl)-2-(ethoxymethyl)-2-methyl-1,2,4,7-tetrahydro-3H-pyrrolo[3′,2′:5,6]pyrido[3,4-b]pyrazin-3-one] | 40 | 18.3 | 262 | – | –
3 | COCC1(C)Nc2c(cnc3[nH]cc(C(=O)c4ccc(Oc5ccccc5)cc4F)c23)NC1=O (stereo not drawn) [Z71] | 20.2 | 21.3 | – | 171 | –
4 | Cc1ccnc(Oc2ccc(C(=O)c3c[nH]c4ncc5c(c34)NC3(CCOCC3)C(=O)N5C)c(Cl)c2)c1 [Z72, 9′-(2-chloro-4-((4-methylpyridin-2-yl)oxy)benzoyl)-4′-methyl-2,3,4′,5,6,7′-hexahydrospiro[pyran-4,2′-pyrrolo[3′,2′:5,6]pyrido[3,4-b]pyrazin]-3′(1′H)-one] | 40 | 37.2 | 404 | – | –
5 | COCC1(C)Nc2c(cnc3[nH]cc(C(=O)c4ccc(Oc5cc(C6CC6)ccn5)cc4Cl)c23)NC1=O (stereo not drawn) [Z73, 9-(2-chloro-4-((4-cyclopropylpyridin-2-yl)oxy)benzoyl)-2-(methoxymethyl)-2-methyl-4,7-dihydro-1H-pyrrolo[3′,2′:5,6]pyrido[3,4-b]pyrazin-3(2H)-one] | 22.8 | 14.5 | 209 | – | –
6 | COCC[C@@]1(C)Nc2c(cnc3[nH]cc(C(=O)c4ccc(Oc5ccccc5)cc4Cl)c23)NC1=O [Z78-1] | 27.6 | 28.8 | – | 289 | –
7 | COC[C@]1(C)Nc2c(cnc3[nH]cc(C(=O)c4ccc(Oc5cccc(C)n5)cc4Cl)c23)NC1=O [Z124-1, (S)-9-(2-chloro-4-((6-methylpyridin-2-yl)oxy)benzoyl)-2-(methoxymethyl)-2-methyl-1,2,4,7-tetrahydro-3H-pyrrolo[3′,2′:5,6]pyrido[3,4-b]pyrazin-3-one] | 24.5 | 30.1 | – | – | 199
8 | COC1CCC2(C1)Nc1c(cnc3[nH]cc(C(=O)c4ccc(Oc5cc(C)ccn5)cc4Cl)c13)NC2=O (stereo not drawn) [Z126, 9′-(2-chloro-4-((4-methylpyridin-2-yl)oxy)benzoyl)-3-methoxy-4′,7′-dihydrospiro[cyclopentane-1,2′-pyrrolo[3′,2′:5,6]pyrido[3,4-b]pyrazin]-3′(1′H)-one] | 5.7 | 13.4 | 183 | – | –
9 | COC[C@]1(C)Nc2c(cnc3[nH]cc(C(=O)c4ccc(Oc5cccc(C#N)c5)cc4Cl)c23)NC1=O [Z131, (S)-3-(3-chloro-4-(2-(methoxymethyl)-2-methyl-3-oxo-2,3,4,7-tetrahydro-1H-pyrrolo[3′,2′:5,6]pyrido[3,4-b]pyrazine-9-carbonyl)phenoxy)benzonitrile] | 26.9 | 37.8 | 307 | – | –
10 | COC[C@]1(C)Nc2c(cnc3[nH]cc(C(=O)c4ccc(Oc5cc(Cl)cc(C)n5)cc4Cl)c23)NC1=O [Z134, (S)-9-(2-chloro-4-((4-chloro-6-methylpyridin-2-yl)oxy)benzoyl)-2-(methoxymethyl)-2-methyl-1,2,4,7-tetrahydro-3H-pyrrolo[3′,2′:5,6]pyrido[3,4-b]pyrazin-3-one] | 14.9 | 11.4 | 256 | – | –
11 | C[C@@]1(COC(F)F)Nc2c(cnc3[nH]cc(C(=O)c4ccc(Oc5ccccc5)cc4Cl)c23)NC1=O [Z139, (S)-9-(2-chloro-4-phenoxybenzoyl)-2-((difluoromethoxy)methyl)-2-methyl-1,2,4,7-tetrahydro-3H-pyrrolo[3′,2′:5,6]pyrido[3,4-b]pyrazin-3-one] | 37.1 | 22.1 | 106 | – | –
12 | COC[C@]1(C)Nc2c(cnc3[nH]cc(C(=O)c4ccc(Oc5ncccc5C)cc4Cl)c23)NC1=O [Z140, (S)-9-(2-chloro-4-((3-methylpyridin-2-yl)oxy)benzoyl)-2-(methoxymethyl)-2-methyl-1,2,4,7-tetrahydro-3H-pyrrolo[3′,2′:5,6]pyrido[3,4-b]pyrazin-3-one] | 26.5 | 18.2 | 158 | – | –
13 | COC[C@]1(C)Nc2c(cnc3[nH]cc(C(=O)c4ccc(Oc5ccccc5)cc4Cl)c23)N(CCO)C1=O [Z143] | 35.6 | 23.2 | – | 291 | –
14 | COC[C@]1(C)Nc2c(cnc3[nH]cc(C(=O)c4ccc(Oc5ncccc5F)cc4Cl)c23)NC1=O [Z144, (S)-9-(2-chloro-4-((3-fluoropyridin-2-yl)oxy)benzoyl)-2-(methoxymethyl)-2-methyl-1,2,4,7-tetrahydro-3H-pyrrolo[3′,2′:5,6]pyrido[3,4-b]pyrazin-3-one] | 11.7 | 16.8 | 227 | – | –
15 | [2H]C([2H])([2H])OC[C@]1(C)Nc2c(cnc3[nH]cc(C(=O)c4ccc(Oc5ncccc5F)cc4Cl)c23)NC1=O [Z145, (S)-9-(2-chloro-4-((3-fluoropyridin-2-yl)oxy)benzoyl)-2-((methoxy-d3)methyl)-2-methyl-1,2,4,7-tetrahydro-3H-pyrrolo[3′,2′:5,6]pyrido[3,4-b]pyrazin-3-one] | 9.3 | 13.1 | 166 | – | –
16 | [2H]C([2H])([2H])OC[C@]1(C)Nc2c(cnc3[nH]cc(C(=O)c4ccc(Oc5nccc(C)c5F)cc4Cl)c23)NC1=O [Z146, (S)-9-(2-chloro-4-((3-fluoro-4-methylpyridin-2-yl)oxy)benzoyl)-2-((methoxy-d3)methyl)-2-methyl-1,2,4,7-tetrahydro-3H-pyrrolo[3′,2′:5,6]pyrido[3,4-b]pyrazin-3-one] | 10 | 16.3 | 195 | – | –
17 | COC[C@]1(C)Nc2c(cnc3[nH]cc(C(=O)c4ccc(Oc5ncccc5Cl)cc4Cl)c23)NC1=O [Z147, (S)-9-(2-chloro-4-((3-chloropyridin-2-yl)oxy)benzoyl)-2-(methoxymethyl)-2-methyl-1,2,4,7-tetrahydro-3H-pyrrolo[3′,2′:5,6]pyrido[3,4-b]pyrazin-3-one] | 11.1 | 19.8 | 279 | – | –
18 | COC[C@]1(C)Nc2c(cnc3[nH]cc(C(=O)c4ccc(Oc5ccccc5F)cc4F)c23)NC1=O [Z156, (S)-9-(2-fluoro-4-(2-fluorophenoxy)benzoyl)-2-(methoxymethyl)-2-methyl-1,2,4,7-tetrahydro-3H-pyrrolo[3′,2′:5,6]pyrido[3,4-b]pyrazin-3-one] | 20 | 10.5 | 117 | – | –
19 | COC[C@]1(C)Nc2c(cnc3[nH]cc(C(=O)c4ccc(Oc5cccc(F)c5)cc4Cl)c23)NC1=O [Z157, (S)-9-(2-chloro-4-(3-fluorophenoxy)benzoyl)-2-(methoxymethyl)-2-methyl-1,2,4,7-tetrahydro-3H-pyrrolo[3′,2′:5,6]pyrido[3,4-b]pyrazin-3-one] | 15.2 | 10.8 | 145 | – | –
20 | [2H]C([2H])([2H])OC[C@]1(C)Nc2c(cnc3[nH]cc(C(=O)c4ccc(Oc5cccc(F)c5)cc4Cl)c23)NC1=O [Z162, (S)-9-(2-chloro-4-(3-fluorophenoxy)benzoyl)-2-((methoxy-d3)methyl)-2-methyl-1,2,4,7-tetrahydro-3H-pyrrolo[3′,2′:5,6]pyrido[3,4-b]pyrazin-3-one] | 25.6 | 36 | 169 | – | –
21 | COC[C@]1(C)Nc2c(cnc3[nH]cc(C(=O)c4ccc(Oc5ccccc5OC)cc4Cl)c23)NC1=O [Z163, (S)-9-(2-chloro-4-(2-methoxyphenoxy)benzoyl)-2-(methoxymethyl)-2-methyl-1,2,4,7-tetrahydro-3H-pyrrolo[3′,2′:5,6]pyrido[3,4-b]pyrazin-3-one] | 10.6 | 16.5 | 75.7 | – | –
22 | COC[C@]1(C)Nc2c(cnc3[nH]cc(C(=O)c4ccc(Oc5ccccc5Cl)cc4Cl)c23)NC1=O [Z164, (S)-9-(2-chloro-4-(2-chlorophenoxy)benzoyl)-2-(methoxymethyl)-2-methyl-1,2,4,7-tetrahydro-3H-pyrrolo[3′,2′:5,6]pyrido[3,4-b]pyrazin-3-one] | 22.4 | 30.1 | 145 | – | –
23 | COC[C@]1(C)Nc2c(cnc3[nH]cc(C(=O)c4ccc(Oc5cccc(Cl)c5)cc4Cl)c23)NC1=O [Z165, (S)-9-(2-chloro-4-(3-chlorophenoxy)benzoyl)-2-(methoxymethyl)-2-methyl-1,2,4,7-tetrahydro-3H-pyrrolo[3′,2′:5,6]pyrido[3,4-b]pyrazin-3-one] | 54.2 | 73.9 | 366 | – | –
